This is an account of results in patent publication US20240294541A1, “COMPOUNDS CONSTITUTING C20-MODIFIED SALINOMYCIN DERIVATIVES, A METHOD FOR OBTAINING THE SAME, A COMPOSITION CONTAINING THE SAME AND A USE OF SAID COMPOUNDS” (FILECLO SPOLKA Z OGRANICZONA ODPOWIEDZIALNOSCIA, priority 2021, published 2024).

Where two headings read alike, the source gives them in different places.

What all share (format): cell-based
The subject of experiment [1] is A2780Cis (cisplatin-resistant human ovarian cancer). Briefly: In vitro cytotoxicity, SRB assay, A2780Cis. The settings on record: for IC50: Homo sapiens, A2780cis, read-out: IC50 (nM) A2780Cis.
Experiment [2] has as its system BALB/3T3 (normal mouse fibroblasts). Briefly: In vitro cytotoxicity, SRB assay, normal BALB/3T3 fibroblasts.
Experiment [3] deals with MV-4-11 (human biphenotypic leukaemia). The experiment in a line: In vitro cytotoxicity, MTT assay, MV-4-11. Particulars: for IC50: Homo sapiens, MV4-11, read-out: IC50 (nM) MV4-11.
Where [4] appears, read: Table 5, BALB/3T3 normal mouse fibroblasts, read-out: IC50 (nM) BALB3T3 normal cells.

In the case of `CC[C@@H](C(=O)[C@@H](C)[C@@H](O)[C@H](C)[C@@H]1O[C@@H]([C@@H](CC)C(=O)O)CC[C@@H]1C)[C@H]1O[C@]2(C=C[C@@H](NC(=O)CBr)[C@]3(CC[C@@](C)([C@H]4CC[C@](O)(CC)[C@H](C)O4)O3)O2)[C@H](C)C[C@@H]1C` [FLC-00501-1•Na, C20-aminosalinomycin 2-bromoacetamide], the “SI A2780Cis” value in experiment [1] turned out to be 1.3. For the same compound, the IC50 (usually the concentration that gives 50% inhibition) in experiment [1] was 2230 nM; in experiment [2] (setting [4]) it was 2830 nM; in experiment [3] it was 1740 nM. In experiment [3], the “SI MV4-11” value is 1.6.
For `CC[C@@H](C(=O)[C@@H](C)[C@@H](O)[C@H](C)[C@@H]1O[C@@H]([C@@H](CC)C(=O)O)CC[C@@H]1C)[C@H]1O[C@]2(C=C[C@@H](NS(=O)(=O)c3ccc(C)cc3)[C@]3(CC[C@@](C)([C@H]4CC[C@](O)(CC)[C@H](C)O4)O3)O2)[C@H](C)C[C@@H]1C` [FLC-00502-1•Na], in that order: 52.7, 1.76 nM, 92.7 nM, 3.3 nM and 28.1.
Taken in the same sequence, the figures for `CC[C@@H](C(=O)[C@@H](C)[C@@H](O)[C@H](C)[C@@H]1O[C@@H]([C@@H](CC)C(=O)O)CC[C@@H]1C)[C@H]1O[C@]2(C=C[C@@H](NS(=O)(=O)c3ccc(Br)cc3)[C@]3(CC[C@@](C)([C@H]4CC[C@](O)(CC)[C@H](C)O4)O3)O2)[C@H](C)C[C@@H]1C` [FLC-00504-1•Na] were 30.5, 2.99 nM, 91.3 nM, 4.4 nM and 20.7.
On to `CC[C@@H](C(=O)[C@@H](C)[C@@H](O)[C@H](C)[C@@H]1O[C@@H]([C@@H](CC)C(=O)O)CC[C@@H]1C)[C@H]1O[C@]2(C=C[C@@H](NS(=O)(=O)c3cccs3)[C@]3(CC[C@@](C)([C@H]4CC[C@](O)(CC)[C@H](C)O4)O3)O2)[C@H](C)C[C@@H]1C` [FLC-00505-1•Na], for which, in experiment [1], the “SI A2780Cis” value came to 15.2 and the IC50 came to 7.61 nM. The IC50 in experiment [2] (setting [4]) came out at 116 nM. Moreover, in experiment [3], the “SI MV4-11” value was determined as 8.3 and the IC50 came to 14 nM.
Taken in the same sequence, the figures for `CC[C@@H](C(=O)[C@@H](C)[C@@H](O)[C@H](C)[C@@H]1O[C@@H]([C@@H](CC)C(=O)O)CC[C@@H]1C)[C@H]1O[C@]2(C=C[C@@H](NC(=O)OCCC#N)[C@]3(CC[C@@](C)([C@H]4CC[C@](O)(CC)[C@H](C)O4)O3)O2)[C@H](C)C[C@@H]1C` [FLC-00509-1•Na] were 14.7, 16.7 nM, 246 nM, 10.9 and 22.6 nM.
For `CC[C@@H](C(=O)[C@@H](C)[C@@H](O)[C@H](C)[C@@H]1O[C@@H]([C@@H](CC)C(=O)O)CC[C@@H]1C)[C@H]1O[C@]2(C=C[C@@H](NC(=O)N3CCN(C)CC3)[C@]3(CC[C@@](C)([C@H]4CC[C@](O)(CC)[C@H](C)O4)O3)O2)[C@H](C)C[C@@H]1C` [FLC-00515-1•Na], in that order: 10.6, 357 nM, 3790 nM, 9.5 and 400 nM.
As to `CC[C@@H](C(=O)[C@@H](C)[C@@H](O)[C@H](C)[C@@H]1O[C@@H]([C@@H](CC)C(=O)O)CC[C@@H]1C)[C@H]1O[C@]2(C=C[C@@H](NC(=O)N3CCN(S(C)(=O)=O)C3=O)[C@]3(CC[C@@](C)([C@H]4CC[C@](O)(CC)[C@H](C)O4)O3)O2)[C@H](C)C[C@@H]1C` [FLC-00519-1•Na], in experiment [1], the “SI A2780Cis” value is 5.3 and the IC50 was determined as 1190 nM. The IC50 in experiment [2] (setting [4]) stood at 6370 nM. In addition, in experiment [3], the “SI MV4-11” value came to 4.0 and the IC50 amounted to 1590 nM.
Taken in the same sequence, the figures for `CC[C@@H](C(=O)[C@@H](C)[C@@H](O)[C@H](C)[C@@H]1O[C@@H]([C@@H](CC)C(=O)O)CC[C@@H]1C)[C@H]1O[C@]2(C=C[C@@H](NC(=O)OCCCCl)[C@]3(CC[C@@](C)([C@H]4CC[C@](O)(CC)[C@H](C)O4)O3)O2)[C@H](C)C[C@@H]1C` [FLC-00530-1•Na] were 24.0, 2.6 nM, 62.5 nM, 9.7 and 6.42 nM.
Take `CC[C@@H](C(=O)[C@@H](C)[C@@H](O)[C@H](C)[C@@H]1O[C@@H]([C@@H](CC)C(=O)O)CC[C@@H]1C)[C@H]1O[C@]2(C=C[C@@H](NC(=O)OC(C(F)(F)F)C(F)(F)F)[C@]3(CC[C@@](C)([C@H]4CC[C@](O)(CC)[C@H](C)O4)O3)O2)[C@H](C)C[C@@H]1C` [FLC-00531-1•Na]: in experiment [1], the “SI A2780Cis” value worked out at 13.2 and the IC50 was determined as 11 nM. In addition, in experiment [2] (Mus musculus, BALB/3T3, read-out: IC50 (nM) BALB3T3 normal cells), the IC50 came out at 145 nM. In addition, in experiment [3], the “SI MV4-11” value turned out to be 6.2 and the IC50 was 23.3 nM.
For the compound `CC[C@@H](C(=O)[C@@H](C)[C@@H](O)[C@H](C)[C@@H]1O[C@@H]([C@@H](CC)C(=O)O)CC[C@@H]1C)[C@H]1O[C@]2(C=C[C@@H](NC(=O)CC(C)(C)C)[C@]3(CC[C@@](C)([C@H]4CC[C@](O)(CC)[C@H](C)O4)O3)O2)[C@H](C)C[C@@H]1C` [FLC-00534-1•Na], in experiment [1], the “SI A2780Cis” value is 50.7 and the IC50 came out at 1.28 nM. Also, in experiment [2] (setting [4]), the IC50 was 64.9 nM. For the same compound, in experiment [3], the “SI MV4-11” value was determined as 42.4 and the IC50 is 1.53 nM.
For `CC[C@@H](C(=O)[C@@H](C)[C@@H](O)[C@H](C)[C@@H]1O[C@@H]([C@@H](CC)C(=O)O)CC[C@@H]1C)[C@H]1O[C@]2(C=C[C@@H](NC(=O)N(C)C)[C@]3(CC[C@@](C)([C@H]4CC[C@](O)(CC)[C@H](C)O4)O3)O2)[C@H](C)C[C@@H]1C` [FLC-00538-1•Na], in that order: 22.4, 42.2 nM, 943 nM, 9.2 and 103 nM.
For `CC[C@@H](C(=O)[C@@H](C)[C@@H](O)[C@H](C)[C@@H]1O[C@@H]([C@@H](CC)C(=O)O)CC[C@@H]1C)[C@H]1O[C@]2(C=C[C@@H](NC(=O)NCCCOC)[C@]3(CC[C@@](C)([C@H]4CC[C@](O)(CC)[C@H](C)O4)O3)O2)[C@H](C)C[C@@H]1C` [FLC-00539-1•Na], in that order: 46.1, 7.06 nM, 326 nM, 11.9 and 27.3 nM.
For the compound `CC[C@@H](C(=O)[C@@H](C)[C@@H](O)[C@H](C)[C@@H]1O[C@@H]([C@@H](CC)C(=O)O)CC[C@@H]1C)[C@H]1O[C@]2(C=C[C@@H](NC(=O)N3CCOCC3)[C@]3(CC[C@@](C)([C@H]4CC[C@](O)(CC)[C@H](C)O4)O3)O2)[C@H](C)C[C@@H]1C` [FLC-00540-1•Na], in experiment [1], the “SI A2780Cis” value came out at 24.1 and the IC50 is 37 nM. Further, the IC50 in experiment [2] (setting [4]) stood at 891 nM. Further, in experiment [3], the “SI MV4-11” value turned out to be 16.5 and the IC50 was 53.9 nM.
On to `CC[C@@H](C(=O)[C@@H](C)[C@@H](O)[C@H](C)[C@@H]1O[C@@H]([C@@H](CC)C(=O)O)CC[C@@H]1C)[C@H]1O[C@]2(C=C[C@@H](NC(=O)N3CCC3)[C@]3(CC[C@@](C)([C@H]4CC[C@](O)(CC)[C@H](C)O4)O3)O2)[C@H](C)C[C@@H]1C` [FLC-00543-1•Na], for which, in experiment [1], the “SI A2780Cis” value is recorded as 15.2 and the concentration for half-maximal inhibition (IC50) came to 67 nM. The IC50 in experiment [2] (setting [4]) was 1020 nM. Further, in experiment [3], the “SI MV4-11” value is recorded as 5.9 and the IC50 stood at 174 nM.
On to `CC[C@@H](C(=O)[C@@H](C)[C@@H](O)[C@H](C)[C@@H]1O[C@@H]([C@@H](CC)C(=O)O)CC[C@@H]1C)[C@H]1O[C@]2(C=C[C@@H](NC(=O)NCC3CCC(F)(F)CC3)[C@]3(CC[C@@](C)([C@H]4CC[C@](O)(CC)[C@H](C)O4)O3)O2)[C@H](C)C[C@@H]1C` [FLC-00545-1•Na], for which, in experiment [1], the “SI A2780Cis” value was determined as 186.6 and the IC50 amounted to 0.57 nM. Further, in experiment [2] (setting [4]), the IC50 was determined as 106 nM. In addition, in experiment [3], the “SI MV4-11” value is given as 62.8 and the IC50 was found to be 1.68 nM.
For `CC[C@@H](C(=O)[C@@H](C)[C@@H](O)[C@H](C)[C@@H]1O[C@@H]([C@@H](CC)C(=O)O)CC[C@@H]1C)[C@H]1O[C@]2(C=C[C@@H](NC(=O)NCCCN3CCS(=O)(=O)CC3)[C@]3(CC[C@@](C)([C@H]4CC[C@](O)(CC)[C@H](C)O4)O3)O2)[C@H](C)C[C@@H]1C` [FLC-00546-1•Na], in that order: 19.5, 112 nM, 2180 nM, 8.5 and 258 nM.
Taken in the same sequence, the figures for `CC[C@@H](C(=O)[C@@H](C)[C@@H](O)[C@H](C)[C@@H]1O[C@@H]([C@@H](CC)C(=O)O)CC[C@@H]1C)[C@H]1O[C@]2(C=C[C@@H](NC(=O)OCCc3scnc3C)[C@]3(CC[C@@](C)([C@H]4CC[C@](O)(CC)[C@H](C)O4)O3)O2)[C@H](C)C[C@@H]1C` [FLC-00547-1•Na] were “≈56.2”, less than 1.38 nM, 77.6 nM, 35.2 and 2.21 nM.
On to `CC[C@@H](C(=O)[C@@H](C)[C@@H](O)[C@H](C)[C@@H]1O[C@@H]([C@@H](CC)C(=O)O)CC[C@@H]1C)[C@H]1O[C@]2(C=C[C@@H](NC(=O)C(C)(C)C)[C@]3(CC[C@@](C)([C@H]4CC[C@](O)(CC)[C@H](C)O4)O3)O2)[C@H](C)C[C@@H]1C` [FLC-00550-1•Na], for which, in experiment [1], the “SI A2780Cis” value was 42.1 and the IC50 is 10.6 nM. The IC50 in experiment [2] (setting [4]) was found to be 448 nM. Also, in experiment [3], the “SI MV4-11” value came out at 26.6 and the IC50 is 16.9 nM.
